Data from patent US20230293517A1, “ANTAGONIST COMPOUNDS” (AdoRx Therapeutics Limited, priority 2020, published 2023).
pIC50, pKi: −log10 of the molar value. Read-outs that look alike come from different tables or passages of the source.

Legend:
[1] = biological target: human Adenosine A2a receptor (Homo sapiens (Human), UniProt P29274); assay: Adenosine receptor TR-FRET binding assay (A2a); details: inhibition of binding of 100 nM CA200645, CHO cell membranes
Method in brief: (§1)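 TR-FRET displacement of fluorescent XAC (CA200645; 30 nM for A2b, 100 nM for A1/A2a/A3) from terbium-labelled human receptors in CHO membranes, 2 h at room temperature with saponin, 1% DMSO. Non-specific binding with 10 μM XAC; 665/620 nm ratio; Ki from IC50 by Cheng–Prusoff.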

human PBMCs = assay: CD3/CD28 stimulated IL-2 release NECA reversal assay in human PBMCs; assay type: cell-based; details: PBMC, 1 uM NECA, 24 hours, IL-2 in culture supernatant
Description: Biological Example—CD3/CD28 Stimulated IL-2 Release NECA Reversal Assay in Human PBMCs
Blood is drawn from healthy volunteers using sodium citrate as the anticoagulant (0.3% final concentration). After centrifugation of the blood over Histopaque-1077, PBMCs are collected from the Histopaque/plasma interface and washed twice in PBS (300 g for 10 mins at room temp). Cells are plated at 50,000 cells/well in 150 μl RPMI/10% FCS in 96-well cell culture plates that have been precoated with 1 ug/ml CD3 antibody. 50 μl diluted compound mix is added to the cells, to obtain final concentrations of 1 ug/ml CD28 antibody, 1 uM NECA and 0.003-10 μM adenosine receptor antagonist. Assay plates are incubated for 24 hours at 37° C. in a humidified incubator. Culture supernatant is tested for IL-2 levels using the human IL-2 Tissue Culture Kit (Meso Scale Discovery). Data for dose-response curves is calculated as % inhibition with 100% inhibition defined from no agonist control wells (+CD3/28-NECA)

[2] = biological target: human Adenosine A1 receptor (Homo sapiens (Human), UniProt P30542); assay: Adenosine receptor TR-FRET binding assay (A1); details: inhibition of binding of 100 nM CA200645, CHO cell membranes
Method in brief: as §1

[3] = biological target: human Adenosine A3 receptor (Homo sapiens (Human), UniProt P0DMS8); assay: Adenosine receptor TR-FRET binding assay (A3); details: inhibition of binding of 100 nM CA200645, CHO cell membranes
Method in brief: as §1

[4] = tested on: CD8+T cells in human whole blood; assay: Measurement of pCREB in CD8+T cells in human whole blood; assay type: cell-based; details: 3 μM NECA, rolipram
Description: Biological Example—Measurement of pCREB in CD8+T Cells in Human Whole Blood
Heparinised human whole blood was pre-incubated at 37° C. with serial dilutions of A2a antagonists for 20 min. and the phosphodiesterase inhibitor rolipram to amplify the pCREB response. The adenosine receptor agonist NECA is then added at a final concentration of 3 μM and following a 60 min incubation the blood is fixed and red blood cells lysed. White blood cells are isolated, permeabilized and stained with directly conjugated fluorescent antibodies to phospho-CREB (Alexa Fluor 488) and CD8 (Alexa Fluor 647) and the level of phospho-CREB in CD8+T cells is measured by FACS using a BD Accuri C6 Flow Cytometer.

[5] = biological target: human Adenosine A2b receptor (Homo sapiens (Human), UniProt P29275); assay: Adenosine receptor TR-FRET binding assay (A2b)
Method in brief: as §1

[6] = TR-FRET, inhibition of binding of 30 nM CA200645, CHO cell membranes

Sequence of human Adenosine A2a receptor (P29274 whole entry): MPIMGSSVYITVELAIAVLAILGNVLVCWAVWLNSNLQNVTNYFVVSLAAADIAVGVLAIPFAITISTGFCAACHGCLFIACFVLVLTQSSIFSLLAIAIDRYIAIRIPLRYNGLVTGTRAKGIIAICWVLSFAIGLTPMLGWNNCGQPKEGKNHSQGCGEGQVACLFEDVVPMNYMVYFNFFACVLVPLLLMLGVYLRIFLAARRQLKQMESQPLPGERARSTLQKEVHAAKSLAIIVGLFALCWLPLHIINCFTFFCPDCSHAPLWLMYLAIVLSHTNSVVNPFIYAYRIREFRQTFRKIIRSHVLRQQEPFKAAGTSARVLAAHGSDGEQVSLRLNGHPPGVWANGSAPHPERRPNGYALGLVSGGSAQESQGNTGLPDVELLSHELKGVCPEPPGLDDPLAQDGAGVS
Sequence of human Adenosine A3 receptor (P0DMS8 whole entry): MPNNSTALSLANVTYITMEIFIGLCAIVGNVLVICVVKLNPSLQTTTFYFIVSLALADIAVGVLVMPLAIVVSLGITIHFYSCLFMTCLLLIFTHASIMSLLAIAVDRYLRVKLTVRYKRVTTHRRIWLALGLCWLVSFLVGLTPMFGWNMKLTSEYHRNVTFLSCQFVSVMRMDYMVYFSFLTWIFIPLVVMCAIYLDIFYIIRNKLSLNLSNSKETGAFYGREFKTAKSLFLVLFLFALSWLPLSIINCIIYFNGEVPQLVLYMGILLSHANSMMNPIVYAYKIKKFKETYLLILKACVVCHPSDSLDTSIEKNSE
Sequence of human Adenosine A2b receptor (P29275 whole entry): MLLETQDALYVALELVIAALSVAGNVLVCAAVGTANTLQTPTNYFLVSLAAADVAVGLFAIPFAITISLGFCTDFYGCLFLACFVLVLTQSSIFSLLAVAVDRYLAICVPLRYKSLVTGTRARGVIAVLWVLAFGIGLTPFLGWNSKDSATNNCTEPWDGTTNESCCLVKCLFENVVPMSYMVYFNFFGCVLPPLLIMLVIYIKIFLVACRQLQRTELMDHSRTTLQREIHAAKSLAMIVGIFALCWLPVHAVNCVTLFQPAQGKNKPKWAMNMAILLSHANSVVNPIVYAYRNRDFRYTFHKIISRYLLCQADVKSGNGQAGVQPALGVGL
Sequence of human Adenosine A1 receptor (P30542 whole entry): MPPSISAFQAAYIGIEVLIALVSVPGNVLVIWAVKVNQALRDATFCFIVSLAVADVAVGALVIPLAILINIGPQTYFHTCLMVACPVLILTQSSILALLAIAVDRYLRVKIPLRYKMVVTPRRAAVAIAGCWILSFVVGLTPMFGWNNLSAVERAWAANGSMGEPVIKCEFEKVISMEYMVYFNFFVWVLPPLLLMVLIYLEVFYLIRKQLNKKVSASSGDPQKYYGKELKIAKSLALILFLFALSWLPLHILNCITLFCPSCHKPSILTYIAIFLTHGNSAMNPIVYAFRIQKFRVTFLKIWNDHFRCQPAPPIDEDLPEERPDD

Compound | pKi [1] | pKi [2] | pKi [3] | pIC50 [4] | pKi [5, 6] | pKi [5] | pIC50 (human PBMCs)
Cc1cc(-c2sc(NC(=O)N3CCC4(CC3)NC(=O)NC4=O)nc2-c2cccc(C#N)c2)cc(C)n1 [Example 4.20, N-[4-(3-Cyanophenyl)-5-(2,6-dimethyl-4-pyridyl)thiazol-2-yl]-2,4-dioxo-1,3,8-triazaspiro[4.5]decane-8-carboxamide] | 8.82 | 6.79 | 6.01 | 6.89 | 8.59 |  | 8.89
Cc1cc(-c2sc(NC(=O)N3CC(CO)C3)nc2-c2cccc(C#N)c2)cc(C)n1 [Example 4.25, N-[4-(3-Cyanophenyl)-5-(2,6-dimethyl-4-pyridyl)thiazol-2-yl]-3-(hydroxymethyl)azetidine-1-carboxamide] | 9.92 | 7.85 | 6.92 | 7.30 | 8.74 |  | 8.96
Cc1cc(-c2sc(NC(=O)N3CC(C#N)C3)nc2-c2cccc(C#N)c2)cc(C)n1 [Example 4.26, 3-Cyano-N-[4-(3-cyanophenyl)-5-(2,6-dimethyl-4-pyridyl)thiazol-2-yl]azetidine-1-carboxamide] | 10.30 | 8.40 | 6.89 | 7.70 | 9.40 |  | 9.40
Cc1cc(-c2sc(NC(=O)N3CCC(C(N)=O)CC3)nc2-c2cccc(C#N)c2)cc(C)n1 [Example 4.29, N1-[4-(3-Cyanophenyl)-5-(2,6-dimethyl-4-pyridyl)thiazol-2-yl]piperidine-1,4-dicarboxamide] | 9.89 | 7.62 | 6.95 | 7.30 | 8.89 |  | 8.68
Cc1cc(-c2sc(NC(=O)N3CC(O)C3)nc2-c2cccc(C#N)c2)cc(C)n1 [Example 4.30, N-[4-(3-Cyanophenyl)-5-(2,6-dimethyl-4-pyridyl)thiazol-2-yl]-3-hydroxy-azetidine-1-carboxamide] | 9.39 | 8.15 | 6.97 | 7.22 | 9.22 |  | 8.89
Cc1cc(-c2sc(NC(=O)N3CCN[C@H](CO)C3)nc2-c2cccc(C#N)c2)cc(Cl)n1 [Example 5.2, (3S)-N-[5-(2-Chloro-6-methyl-4-pyridyl)-4-(3-cyanophenyl)thiazol-2-yl]-3-(hydroxymethyl)piperazine-1-carboxamide] | 9.08 | 7.40 | 7.15 | 5.93 | 9.05 |  | 7.69
Cc1cc(-c2sc(NC(=O)N3CCN[C@@H](C)C3)nc2-c2cccc(C#N)c2)cc(Cl)n1 [Example 5.4, (3S)-N-[5-(2-Chloro-6-methyl-4-pyridyl)-4-(3-cyanophenyl)thiazol-2-yl]-3-methyl-piperazine-1-carboxamide] | 8.99 | 6.95 | 7.48 | 5.71 |  | 8.24 | 7.14
Cc1cc(-c2sc(NC(=O)N3CCN[C@H](C)C3)nc2-c2cccc(C#N)c2)cc(Cl)n1 [Example 5.5, (3R)-N-[5-(2-Chloro-6-methyl-4-pyridyl)-4-(3-cyanophenyl)thiazol-2-yl]-3-methyl-piperazine-1-carboxamide] | 9.03 | 6.94 | 7.15 | 5.57 | 8.62 |  | 7.51
Cc1cc(-c2sc(NC(=O)N3C[C@@H]4C[C@H]3CN4)nc2-c2cccc(C#N)c2)cc(Cl)n1 [Example 5.6, (1S,4S)-N-[5-(2-Chloro-6-methyl-4-pyridyl)-4-(3-cyanophenyl)thiazol-2-yl]-2,5-diazabicyclo[2.2.1]heptane-2-carboxamide] | 8.67 | 7.66 | 7.51 | 6.14 | 8.38 |  | 7.52
Cc1cc(-c2sc(NC(=O)N3CCN[C@H](C(N)=O)C3)nc2-c2cccc(C#N)c2)cc(Cl)n1 [Example 5.8, (3S)-N1-[5-(2-Chloro-6-methyl-4-pyridyl)-4-(3-cyanophenyl)thiazol-2-yl]piperazine-1,3-dicarboxamide] | 9.17 | 7.47 | 6.32 | 6.01 | 8.74 |  | 7.74
Cc1cc(-c2sc(NC(=O)N3CCC(C)(N)CC3)nc2-c2cccc(C#N)c2)cc(Cl)n1 [Example 5.9, 4-Amino-N-[5-(2-chloro-6-methyl-4-pyridyl)-4-(3-cyanophenyl)thiazol-2-yl]-4-methyl-piperidine-1-carboxamide] | 8.63 | 7.09 | 6.90 | 6.00 | 8.37 |  | 7.74

More lines, main results first:

pKi [1] | pKi [2] | pKi [3] | pIC50 [4] | pKi [5, 6] | pKi [5] | Compound | pIC50 (human PBMCs)
9.17 | 6.99 | 6.44 | 6.72 | 8.51 |  | Cc1cc(-c2sc(NC(=O)N3CCC4(CC3)CNC(=O)C4)nc2-c2cccc(C#N)c2)cc(C)n1 [Example 6.4, N-[4-(3-Cyanophenyl)-5-(2,6-dimethyl-4-pyridyl)thiazol-2-yl]-3-oxo-2,8-diazaspiro[4.5]decane-8-carboxamide] | 8.85
9.52 | 7.85 | 6.50 | 7.40 | 8.92 |  | Cc1cc(-c2sc(NC(=O)N3CCC4(CC3)COC4)nc2-c2cccc(C#N)c2)cc(C)n1 [Example 6.10, N-[4-(3-Cyanophenyl)-5-(2,6-dimethyl-4-pyridyl)thiazol-2-yl]-2-oxa-7-azaspiro[3.5]nonane-7-carboxamide] | 8.54
9.41 | 7.38 | 6.50 | 7.30 | 8.59 |  | Cc1cc(-c2sc(NC(=O)N3CCC4(CC3)CNC(=O)N4)nc2-c2cccc(C#N)c2)cc(C)n1 [Example 6.11, N-[4-(3-Cyanophenyl)-5-(2,6-dimethyl-4-pyridyl)thiazol-2-yl]-2-oxo-1,3,8-triazaspiro[4.5]decane-8-carboxamide] | 8.28
9.64 | 6.86 | 6.53 | 6.96 | 8.62 |  | Cc1cc(-c2sc(NC(=O)N3CCC4(CC3)CN(C)C(=O)O4)nc2-c2cccc(C#N)c2)cc(C)n1 [Example 6.12, N-[4-(3-Cyanophenyl)-5-(2,6-dimethyl-4-pyridyl)thiazol-2-yl]-3-methyl-2-oxo-1-oxa-3,8-diazaspiro[4.5]decane-8-carboxamide] | 8.57
9.22 | 6.78 | 6.11 | 7.30 | 8.59 |  | Cc1cc(-c2sc(NC(=O)N3CCN4CCS(=O)(=O)CC4C3)nc2-c2cccc(C#N)c2)cc(C)n1 (stereo not drawn) [Example 6.14, N-[4-(3-Cyanophenyl)-5-(2,6-dimethyl-4-pyridyl)thiazol-2-yl]-2,2-dioxo-3,4,6,7,9,9a-hexahydro-1H-pyrazino[2,1-c][1,4]thiazine-8-carboxamide] | 8.28
9.34 | 7.46 | 6.39 | 7.15 | 8.19 |  | Cc1cc(-c2sc(NC(=O)N3CCN4C(=O)OCCC4C3)nc2-c2cccc(C#N)c2)cc(C)n1 (stereo not drawn) [Example 6.17, N-[4-(3-Cyanophenyl)-5-(2,6-dimethyl-4-pyridyl)thiazol-2-yl]-6-oxo-1,3,4,8,9,9a-hexahydropyrazino[1,2-c][1,3]oxazine-2-carboxamide] | 8.28
9.48 | 7.15 | 6.48 | 7.40 | 8.21 |  | Cc1cc(-c2sc(NC(=O)N3CCN4C(=O)CCC4C3)nc2-c2cccc(C#N)c2)cc(C)n1 (stereo not drawn) [Example 6.18, N-[4-(3-Cyanophenyl)-5-(2,6-dimethyl-4-pyridyl)thiazol-2-yl]-6-oxo-1,3,4,7,8,8a-hexahydropyrrolo[1,2-a]pyrazine-2-carboxamide] | 8.30
9.85 | 7.28 | 6.54 | 7.70 | 8.72 |  | Cc1cc(-c2sc(NC(=O)N3CCC4(CC3)CNC4=O)nc2-c2cccc(C#N)c2)cc(C)n1 [Example 6.20, N-[4-(3-Cyanophenyl)-5-(2,6-dimethyl-4-pyridyl)thiazol-2-yl]-3-oxo-2,7-diazaspiro[3.5]nonane-7-carboxamide] | 8.74
